Experimental data taken from the supplement of paper PMC10307832.

Key:
Experiment in all cases: relative viability (nuclei count vs DMSO), 5 days (fraction); higher = more cells survive
Crenolanib + Trametinib = compound: CC1(COc2ccc3c(c2)ncn3-c2ccc3cccc(N4CCC(N)CC4)c3n2)COC1 [Crenolanib] + CC(=O)Nc1cccc(-n2c(=O)n(C3CC3)c(=O)c3c(Nc4ccc(I)cc4F)n(C)c(=O)c(C)c32)c1 [Trametinib] (partner 0.02 µM)
Outline: (§1)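 Cells from lung cancer lines were seeded into 1536-well plates and, one day later, dosed by pin tool. Treatments were either a single drug or a fixed dose of an anchor drug with five library-drug doses (not always all listed) in √10 steps. After 5 days, nuclei were stained in a one-step fixation (final 0.05% Triton X-100, 1% formaldehyde, 1 ug/ml Hoechst) and counted on 4× images, and relative viability is the treated-to-vehicle nuclei ratio, as the median of duplicate plates.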

Crenolanib + Palbociclib = compound: CC1(COc2ccc3c(c2)ncn3-c2ccc3cccc(N4CCC(N)CC4)c3n2)COC1 [Crenolanib] + CC(=O)c1c(C)c2cnc(Nc3ccc(N4CCNCC4)cn3)nc2n(C2CCCC2)c1=O [Palbociclib] (partner 0.5 µM)
Outline: as §1

Crenolanib + Linsitinib = compound: CC1(COc2ccc3c(c2)ncn3-c2ccc3cccc(N4CCC(N)CC4)c3n2)COC1 [Crenolanib] + C[C@]1(O)C[C@@H](c2nc(-c3ccc4ccc(-c5ccccc5)nc4c3)c3c(N)nccn32)C1 [Linsitinib] (partner 1 µM)
Outline: as §1

Crenolanib + Navitoclax = compound: CC1(COc2ccc3c(c2)ncn3-c2ccc3cccc(N4CCC(N)CC4)c3n2)COC1 [Crenolanib] + CC1(C)CCC(c2ccc(Cl)cc2)=C(CN2CCN(c3ccc(C(=O)NS(=O)(=O)c4ccc(N[C@H](CCN5CCOCC5)CSc5ccccc5)c(S(=O)(=O)C(F)(F)F)c4)cc3)CC2)C1 [Navitoclax] (partner 0.5 µM)
Outline: as §1

Cell Line | relative viability (Crenolanib + Trametinib; first compound 0.01 µM) | relative viability (Crenolanib + Trametinib; first compound 0.03162 µM) | relative viability (Crenolanib + Trametinib; first compound 0.1 µM) | relative viability (Crenolanib + Trametinib; first compound 0.3162 µM) | relative viability (Crenolanib + Trametinib; first compound 1 µM) | relative viability (Crenolanib + Palbociclib; first compound 0.01 µM) | relative viability (Crenolanib + Palbociclib; first compound 0.03162 µM) | relative viability (Crenolanib + Palbociclib; first compound 0.1 µM) | relative viability (Crenolanib + Palbociclib; first compound 0.3162 µM) | relative viability (Crenolanib + Palbociclib; first compound 1 µM) | relative viability (Crenolanib + Linsitinib; first compound 0.01 µM) | relative viability (Crenolanib + Linsitinib; first compound 0.03162 µM) | relative viability (Crenolanib + Linsitinib; first compound 0.1 µM) | relative viability (Crenolanib + Linsitinib; first compound 0.3162 µM) | relative viability (Crenolanib + Linsitinib; first compound 1 µM) | relative viability (Crenolanib + Navitoclax; first compound 0.01 µM) | relative viability (Crenolanib + Navitoclax; first compound 0.03162 µM) | relative viability (Crenolanib + Navitoclax; first compound 0.1 µM) | relative viability (Crenolanib + Navitoclax; first compound 0.3162 µM) | relative viability (Crenolanib + Navitoclax; first compound 1 µM)
NCI-H1734 | 0.768 | 0.725 | 0.682 | 0.806 | 0.765 | 0.515 | 0.369 | 0.372 | 0.338 | 0.376 | 0.925 | 0.934 | 0.858 | 1.02 | 0.895 | 0.846 | 0.778 | 0.796 | 0.952 | 0.886
NCI-H1755 | 0.754 | 0.707 | 0.734 | 0.885 | 0.75 | 0.466 | 0.443 | 0.46 | 0.454 | 0.473 | 1.01 | 0.981 | 0.994 | 1.09 | 0.959 | 0.974 | 1.02 | 0.998 | 1.01 | 0.993
NCI-H1792 | 0.422 | 0.545 | 0.399 | 0.485 | 0.347 | 0.68 | 0.683 | 0.648 | 0.687 | 0.677 | 0.603 | 0.648 | 0.554 | 0.532 | 0.518 | 0.656 | 0.408 | 0.579 | 0.673 | 0.642
NCI-H1793 | 0.349 | 0.333 | 0.363 | 0.472 | 0.458 | 0.295 | 0.321 | 0.302 | 0.36 | 0.43 | 0.811 | 1.03 | 0.838 | 1.14 | 0.873 | 0.441 | 0.362 | 0.386 | 0.386 | 0.511
NCI-H1915 | 0.29 | 0.324 | 0.289 | 0.304 | 0.275 | 0.513 | 0.57 | 0.507 | 0.522 | 0.389 | 1.13 | 1.13 | 1.07 | 1.09 | 1.06 | 0.792 | 0.769 | 0.786 | 0.828 | 0.831
NCI-H1944 | 0.426 | 0.414 | 0.375 | 0.454 | 0.406 | 0.356 | 0.315 | 0.335 | 0.324 | 0.3 | 1.18 | 1.15 | 1.21 | 1.32 | 1.17 | 0.987 | 1.03 | 1.04 | 1.13 | 1.03
NCI-H1975 | 0.344 | 0.316 | 0.313 | 0.304 | 0.359 | 0.623 | 0.575 | 0.498 | 0.568 | 0.555 | 1.05 | 0.968 | 0.933 | 0.993 | 0.864 | 1.18 | 1.02 | 0.954 | 1.17 | 1.24
NCI-H1993 | 0.509 | 0.512 | 0.56 | 0.505 | 0.501 | 0.596 | 0.704 | 0.621 | 0.688 | 0.579 | 0.771 | 0.757 | 0.724 | 0.649 | 0.705 | 0.994 | 0.92 | 0.825 | 0.897 | 0.884
NCI-H2009 | 0.325 | 0.296 | 0.308 | 0.223 | 0.235 | 0.219 | 0.22 | 0.251 | 0.186 | 0.19 | 1.23 | 1.2 | 1.2 | 1.21 | 1.19 | 1.2 | 1.17 | 1.13 | 1.24 | 1.01
NCI-H2023 | 0.549 | 0.556 | 0.53 | 0.594 | 0.494 | 0.358 | 0.373 | 0.386 | 0.434 | 0.335 | 0.669 | 0.678 | 0.626 | 0.801 | 0.621 | 1.02 | 0.996 | 0.977 | 1.09 | 0.956
NCI-H2085 | – | 0.571 | 0.549 | 0.51 | 0.554 | – | 0.46 | 0.475 | 0.512 | 0.485 | 0.998 | 0.896 | 0.913 | 0.932 | 0.873 | 1.08 | 1.12 | 1.09 | 1.24 | 1.17
NCI-H2087 | 0.234 | 0.227 | 0.207 | 0.207 | 0.193 | 0.248 | 0.249 | 0.233 | 0.211 | 0.318 | 1.02 | 1.13 | 0.917 | 1.23 | 1.02 | 1.02 | 0.9 | 0.867 | 1.06 | 1.12
NCI-H2126 | 0.596 | 0.578 | 0.564 | 0.608 | 0.62 | 0.343 | 0.352 | 0.335 | 0.352 | 0.372 | 0.693 | 0.717 | 0.745 | 0.759 | 0.788 | 0.891 | 0.888 | 0.831 | 0.916 | 0.934
NCI-H2228 | 0.442 | 0.544 | 0.342 | 0.551 | 0.5 | 0.758 | 0.866 | 0.629 | 0.92 | 0.815 | 0.762 | 0.591 | 0.565 | 0.691 | 0.729 | 0.796 | 0.62 | 0.764 | 1.24 | 1.3
NCI-H2347 | 0.283 | 0.286 | 0.282 | 0.255 | 0.293 | 0.458 | 0.453 | 0.395 | 0.435 | 0.481 | 0.972 | 1.02 | 0.736 | 1.04 | 0.873 | 0.835 | 0.815 | 0.478 | 0.885 | 0.865
NCI-H2405 | 0.698 | – | 0.483 | 0.621 | 0.57 | 0.584 | – | 0.39 | 0.541 | 0.539 | 1.15 | 0.923 | 0.661 | 0.794 | 0.859 | 1.34 | 0.917 | 0.441 | 0.765 | 0.806
